ChEMBL document CHEMBL5352436, “Triterpenoid pyrazines and pyridines - Synthesis, cytotoxicity, mechanism of action, preparation of prodrugs” (Eur J Med Chem, 2022)
Activity calls are given as the source filed them. No cut-off for these calls is given here.

Columns and labels:
CCRF-CEM [1] = test: Induction of apoptosis in human CCRF-CEM cells assessed as necrotic cells at 5 times IC50 incubated for 24 hrs by Annexin V and propidium iodide staining based flow cytometry analysis […]; type: functional
CCRF-CEM [2] = test: Induction of apoptosis in human CCRF-CEM cells assessed as decrease in c-Myc expression at 1 to 5 times IC50 incubated for 24 hrs by Western blot analysis; type: functional, cell-based
CCRF-CEM [3] = test: Induction of apoptosis in human CCRF-CEM cells assessed as necrotic cells at 1 time IC50 incubated for 24 hrs by Annexin V and propidium iodide staining based flow cytometry analysis (reference value: 0.0%); type: functional
CCRF-CEM [4] = test: Induction of apoptosis in human CCRF-CEM cells assessed as accumulation of Bid protein expression at 1 to 5 times IC50 incubated for 24 hrs by Western blot analysis; type: functional, cell-based
CCRF-CEM [5] = test: Induction of apoptosis in human CCRF-CEM cells assessed as accumulation of Bax protein expression at 1 to 5 times IC50 incubated for 24 hrs by Western blot analysis; type: functional, cell-based
CCRF-CEM [6] = test: Induction of apoptosis in human CCRF-CEM cells assessed as late apoptotic cells at 1 time IC50 incubated for 24 hrs by Annexin V and propidium iodide staining based flow cytometry analysis (reference value: […]); type: functional
CCRF-CEM [7] = test: Induction of apoptosis in human CCRF-CEM cells assessed as early apoptotic cells at 1 time IC50 incubated for 24 hrs by Annexin V and propidium iodide staining based flow cytometry analysis (reference value: […]); type: functional
CCRF-CEM [8] = test: Induction of apoptosis in human CCRF-CEM cells assessed as early apoptotic cells at 5 times IC50 incubated for 24 hrs by Annexin V and propidium iodide staining based flow cytometry analysis […]; type: functional
CCRF-CEM [9] = test: Induction of apoptosis in human CCRF-CEM cells assessed as viable cells at 1 time IC50 incubated for 24 hrs by Annexin V and propidium iodide staining based flow cytometry analysis […]; type: functional
CCRF-CEM [10] = test: Induction of apoptosis in human CCRF-CEM cells assessed as late apoptotic cells at 5 times IC50 incubated for 24 hrs by Annexin V and propidium iodide staining based flow cytometry analysis […]; type: functional
CCRF-CEM [11] = test: Induction of apoptosis in human CCRF-CEM cells assessed as viable cells at 5 times IC50 incubated for 24 hrs by Annexin V and propidium iodide staining based flow cytometry analysis […]; type: functional
CCRF-CEM [12] = test: Induction of apoptosis in human CCRF-CEM cells assessed as PARP cleavage at 1 to 5 times IC50 incubated for 24 hrs by Western blot analysis; type: functional, cell-based
CCRF-CEM [13] = test: Induction of apoptosis in human CCRF-CEM cells assessed as increase in Noxa expression at 1 to 5 times IC50 incubated for 24 hrs by Western blot analysis; type: functional, cell-based
A549 = test: Cytotoxicity against human A549 cells assessed as reduction in cell viability incubated for 72 hrs by MTS assay; type: functional, cell-based; settings: A549, 72 h
HCT-116 = test: Cytotoxicity against human HCT-116 cells assessed as reduction in cell viability incubated for 72 hrs by MTS assay; type: functional, cell-based; settings: HCT-116, 72 h
[14] = Cytotoxicity against human MRC5 cells assessed as reduction in cell viability incubated for 72 hrs by MTS assay; type: toxicity, cell-based
K562 = test: Cytotoxicity against human K562 cells assessed as reduction in cell viability incubated for 72 hrs by MTS assay; type: functional, cell-based; settings: K562, 72 h
CCRF-CEM [15] = test: Cytotoxicity against human CCRF-CEM cells assessed as reduction in cell viability incubated for 72 hrs by MTS assay; type: functional, cell-based
U2OS = test: Cytotoxicity against human U2OS cells assessed as reduction in cell viability incubated for 72 hrs by MTS assay; type: functional, cell-based
CEM-DNR = test: Cytotoxicity against human CEM-DNR cells assessed as reduction in cell viability incubated for 72 hrs by MTS assay; type: functional, cell-based
[16] = Cytotoxicity against human K562-Tax cells assessed as reduction in cell viability incubated for 72 hrs by MTS assay; type: functional, cell-based
[17] = Cytotoxicity against human HCT116-p53-null cells assessed as reduction in cell viability incubated for 72 hrs by MTS assay; type: functional, cell-based
[18] = Cytotoxicity against human BJ cells assessed as reduction in cell viability incubated for 72 hrs by MTS assay; type: toxicity, cell-based
[19] = Efflux ratio of apparent permeability across basolateral to apical side over apical to basolateral side in MDCK-MDR1 cells; type: ADME, cell-based, Canis lupus familiaris; settings: dog
[20] = Stability in human plasma assessed as compound remaining at 2 uM measured at 120 mins by RF-MS analysis; type: ADME, cell-free; settings: read-out: Stability
[21] = Chemical stability in PBS buffer at pH 7.4 assessed as compound remaining measured at 30 mins by RF-MS analysis; type: physicochemical; settings: read-out: Stability
[22] = Apparent permeability of the compound in MDCK-MDR1 cells assessed as drug recovery at 10 uM incubated for 1 hr by RF-MS analysis; type: ADME, cell-based, Canis lupus familiaris; settings: dog, read-out: Drug recovery
[23] = Stability in human plasma assessed as compound remaining at 2 uM measured at 30 mins by RF-MS analysis; type: ADME, cell-free; settings: read-out: Stability
[24] = Chemical stability in PBS buffer at pH 7.4 assessed as compound remaining measured at 120 mins by RF-MS analysis; type: physicochemical; settings: read-out: Stability
[25] = Stability in human liver microsomes assessed as compound remaining at 2 uM measured at 30 mins in presence of NADPH by RF-MS analysis; type: ADME, Microsome; settings: read-out: Stability
[26] = Stability in human liver microsomes assessed as compound remaining at 2 uM measured at 15 mins in presence of NADPH by RF-MS analysis; type: ADME, Microsome; settings: read-out: Stability
[27] = Chemical stability in PBS buffer at pH 7.4 assessed as compound remaining measured at 60 mins by RF-MS analysis; type: physicochemical; settings: read-out: Stability
[28] = Stability in human plasma assessed as compound remaining at 2 uM measured at 15 mins by RF-MS analysis; type: ADME, cell-free; settings: read-out: Stability
[29] = Apparent permeability of the compound in MDCK-MDR1 cells at 10 uM incubated for 1 hr by RF-MS analysis; type: ADME, cell-based, Canis lupus familiaris; settings: dog
[30] = Stability in human plasma assessed as compound remaining at 2 uM measured at 60 mins by RF-MS analysis; type: ADME, cell-free; settings: read-out: Stability
[31] = Stability in human liver microsomes assessed as compound remaining at 2 uM measured at 60 mins in presence of NADPH by RF-MS analysis; type: ADME, Microsome; settings: read-out: Stability
[32] = Chemical stability in PBS buffer at pH 7.4 assessed as compound remaining measured at 15 mins by RF-MS analysis; type: physicochemical; settings: read-out: Stability
[33] = Plasma protein binding in human at 10 uM by rapid equilibrium dialysis based RF-MS analysis; type: ADME, cell-free; settings: read-out: PB (converted)

Row | Compound | Activity (CCRF-CEM [1]) [%] | Activity (CCRF-CEM [3]) [%] | Activity (CCRF-CEM [4]) | Activity (CCRF-CEM [5]) | Activity (CCRF-CEM [6]) [%] | Activity (CCRF-CEM [7]) [%] | Activity (CCRF-CEM [8]) [%] | Activity (CCRF-CEM [9]) [%] | Activity (CCRF-CEM [10]) [%] | Activity (CCRF-CEM [11]) [%] | IC50 (A549) [µM] | IC50 (HCT-116) [µM] | IC50 at 72 h [14] [µM] | IC50 (K562) [µM] | IC50 (CCRF-CEM [15]) [µM] | IC50 (U2OS) [µM] | IC50 (CEM-DNR) [µM] | IC50 [16] [µM] | IC50 [17] [µM] | IC50 at 72 h [18] [µM] | other results
1 | C=C(C=O)[C@@H]1CC[C@]2(C(=O)OCc3cn([C@H]4O[C@H](CO)[C@@H](O)[C@H](O)[C@H]4O)nn3)CC[C@]3(C)[C@H](CC[C@@H]4[C@@]5(C)Cc6nccnc6C(C)(C)[C@@H]5CC[C@]43C)[C@@H]12 (stereo in doubt) | 0.1 | 5 | Active | Active | 3.3 | 4.9 | 41.5 | 86.9 | 57.7 | 0.6 | – | – | – | – | – | – | – | – | – | – | Activity (CCRF-CEM [2]): Active; Activity (CCRF-CEM [12]): Active; Activity (CCRF-CEM [13]): Active
2 | C=C(C)[C@@H]1CC[C@]2(C(=O)OCc3oc(=O)oc3C)CC[C@]3(C)[C@H](CC[C@@H]4[C@@]5(C)CCC(=O)C(C)(C)[C@@H]5CC[C@]43C)[C@@H]12 | 1.1 | 6.4 | Active | Active | 1.9 | 2 | 7.1 | 89.8 | 6.5 | 85.3 | 9.5 | 21 | 47 | 0.87 | 2.3 | 22 | 9.1 | 11 | 19 | > 50 | Activity (CCRF-CEM [12]): Active; Activity (CCRF-CEM [13]): Active
3 | C=C(C)[C@@H]1CC[C@]2(C(=O)OCc3cn([C@H]4O[C@H](COC(C)=O)[C@@H](OC(C)=O)[C@H](OC(C)=O)[C@H]4OC(C)=O)nn3)CC[C@]3(C)[C@H](CC[C@@H]4[C@@]5(C)CC[C@H](O)C(C)(C)[C@@H]5CC[C@]43C)[C@@H]12 | – | – | – | – | – | – | – | – | – | – | > 50 | > 50 | > 50 | > 50 | > 50 | > 50 | > 50 | > 50 | > 50 | > 50 | efflux ratio [19]: 5.61; remaining at 2 h, 2 µM [20]: 83.4%; remaining at 0.5 h [21]: 92.7%; recovery at 1 h, 10 µM [22]: 77%; remaining at 0.5 h, 2 µM [23]: 92.2%; remaining at 2 h [24]: 77.9%; remaining at 0.5 h, 2 µM [25]: 98.8%; remaining at 0.25 h, 2 µM [26]: 99%; remaining at 1 h [27]: 82.3%; remaining at 0.25 h, 2 µM [28]: 94.3%; Papp at 1 h, 10 µM [29]: 0.28 ×10⁻⁶ cm/s; remaining at 1 h, 2 µM [30]: 87.8%; remaining at 1 h, 2 µM [31]: 97%; remaining at 0.25 h [32]: 98.5%; fraction unbound at 10 µM [33]: 0.0044
4 | C=C(C)[C@@H]1CC[C@]2(C(=O)OCc3oc(=O)oc3C)CC[C@]3(C)[C@H](CC[C@@H]4[C@@]5(C)CC[C@H](O)C(C)(C)[C@@H]5CC[C@]43C)[C@@H]12 | 6.8 | 8.7 | Active | Active | 1.9 | 2.1 | 6.1 | 87.4 | 3.4 | 83.7 | 13 | 17 | 41 | 8.3 | 4.5 | 19 | 14 | 12 | 15 | 44 | Activity (CCRF-CEM [2]): Active; Activity (CCRF-CEM [12]): Active; Activity (CCRF-CEM [13]): Active
5 | C=C(C)[C@@H]1CC[C@]2(C(=O)OCc3cn([C@H]4O[C@H](COC(C)=O)[C@@H](OC(C)=O)[C@H](OC(C)=O)[C@H]4OC(C)=O)nn3)CC[C@]3(C)[C@H](CC[C@@H]4[C@@]5(C)Cc6nccnc6C(C)(C)[C@@H]5CC[C@]43C)[C@@H]12 (stereo in doubt) | – | – | – | – | – | – | – | – | – | – | > 50 | > 50 | > 50 | > 50 | > 50 | > 50 | 49 | > 50 | > 50 | > 50 | efflux ratio [19]: 7.1; remaining at 2 h, 2 µM [20]: 87.1%; remaining at 0.5 h [21]: 99.5%; recovery at 1 h, 10 µM [22]: 87.7%; remaining at 0.5 h, 2 µM [23]: 91.2%; remaining at 2 h [24]: 92.9%; remaining at 0.5 h, 2 µM [25]: 98.3%; remaining at 0.25 h, 2 µM [26]: 99.3%; remaining at 1 h [27]: 92.1%; remaining at 0.25 h, 2 µM [28]: 98.7%; Papp at 1 h, 10 µM [29]: 1.67 ×10⁻⁶ cm/s; remaining at 1 h, 2 µM [30]: 88%; remaining at 1 h, 2 µM [31]: 97.8%; remaining at 0.25 h [32]: 98.9%; fraction unbound at 10 µM [33]: 0.107
